Assay results published in US9120770B2, “Substituted pyridine and pyrazine compounds as PDE4 inhibitors” (DART NEUROSCIENCE (CAYMAN) LTD., priority 2013, dated 2015).
pEC50: −log10 of the molar value.

What follows are compounds tested against PDE4D3 (Homo sapiens, UniProt Q08499).
Chain of PDE4D3 (Q08499 1-673 isoform Q08499-2): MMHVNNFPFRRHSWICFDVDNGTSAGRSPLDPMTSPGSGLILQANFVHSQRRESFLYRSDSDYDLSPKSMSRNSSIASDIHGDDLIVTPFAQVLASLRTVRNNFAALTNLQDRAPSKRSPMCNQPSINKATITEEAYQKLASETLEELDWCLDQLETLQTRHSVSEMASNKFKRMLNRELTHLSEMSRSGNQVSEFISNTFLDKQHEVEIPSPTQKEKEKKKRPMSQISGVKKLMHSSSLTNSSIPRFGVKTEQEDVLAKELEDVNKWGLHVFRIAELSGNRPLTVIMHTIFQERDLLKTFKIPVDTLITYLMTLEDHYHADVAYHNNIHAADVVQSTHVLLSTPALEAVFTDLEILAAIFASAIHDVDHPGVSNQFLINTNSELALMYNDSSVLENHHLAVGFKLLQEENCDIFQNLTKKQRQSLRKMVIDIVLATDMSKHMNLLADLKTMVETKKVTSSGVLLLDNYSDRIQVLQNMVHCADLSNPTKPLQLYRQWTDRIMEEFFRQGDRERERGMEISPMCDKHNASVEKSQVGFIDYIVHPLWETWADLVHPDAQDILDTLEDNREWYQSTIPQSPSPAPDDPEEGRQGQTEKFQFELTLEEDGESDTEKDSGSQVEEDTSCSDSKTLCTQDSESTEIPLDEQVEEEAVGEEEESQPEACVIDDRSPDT

Structure (SMILES) | pEC50
CCOc1ncc(Cn2cnc(CO)n2)cc1-c1cccc(Cl)c1 [Example 203, (1-((5-(3-Chlorophenyl)-6-ethoxypyridin-3-yl)methyl)-1H-1,2,4-triazol-3-yl)methanol] | > 7.00
CCOc1cccc(-c2cc(Cn3cnc(CO)n3)cnc2OC(F)F)c1 [Example 204, (1-{[6-(Difluoromethoxy)-5-(3-ethoxyphenyl)pyridin-3-yl]methyl}-1H-1,2,4-triazol-3-yl)methanol] | > 7.00
COc1ncc(Cn2cnc(CO)n2)cc1-c1ccnc(OC(F)F)c1 [Example 205, [1-({5-[2-(Difluoromethoxy)pyridin-4-yl]-6-methoxypyridin-3-yl}methyl)-1H-1,2,4-triazol-3-yl]methanol] | > 7.00
CCOc1ncc(Cn2cnc(CO)n2)cc1-c1ccnc(OC(F)F)c1 [Example 206, [1-({5-[2-(Difluoromethoxy)pyridin-4-yl]-6-ethoxypyridin-3-yl}methyl)-1H-1,2,4-triazol-3-yl]methanol] | > 7.00
OCc1ncn(Cc2cnc(OC(F)F)c(-c3ccnc(OC(F)F)c3)c2)n1 [Example 207, (1-{[6-(Difluoromethoxy)-5-[2-(difluoromethoxy)pyridin-4-yl]pyridin-3-yl]methyl}-1H-1,2,4-triazol-3-yl)methanol] | 6.00 to 7.00
CCOc1ncc(Cn2cnc(CO)n2)nc1-c1cccc(OC(F)F)c1 [Example 208, [1-({6-[3-(Difluoromethoxy)phenyl]-5-ethoxypyrazin-2-yl}methyl)-1H-1,2,4-triazol-3-yl]methanol] | 6.00 to 7.00
CCOc1ncc(Cn2ncnc2CO)nc1-c1cccc(OC(F)F)c1 [Example 209, [1-({6-[3-(Difluoromethoxy)phenyl]-5-ethoxypyrazin-2-yl}methyl)-1H-1,2,4-triazol-5-yl]methanol] | 5.00 to 6.00
COc1ncc(Cn2ncnc2CO)nc1-c1cccc(Cl)c1 [Example 210, (1-{[6-(3-Chlorophenyl)-5-methoxypyrazin-2-yl]methyl}-1H-1,2,4-triazol-5-yl)methanol] | 5.00 to 6.00
COc1ncc(Cn2cnc(CO)n2)nc1-c1cccc(OC(F)F)c1 [Example 211, [1-({6-[3-(Difluoromethoxy)phenyl]-5-methoxypyrazin-2-yl}-methyl)-1H-1,2,4-triazol-3-yl]methanol] | 6.00 to 7.00
CCOc1ncc(Cn2cnc(CO)n2)nc1-c1cccc(Cl)c1 [Example 212, (1-{[6-(3-Chlorophenyl)-5-ethoxypyrazin-2-yl]methyl}-1H-1,2,4-triazol-3-yl)methanol] | 6.00 to 7.00
COc1ncn(Cc2cnc(OC)c(-c3cccc(Cl)c3)c2)n1 [Example 213, 3-(3-Chlorophenyl)-2-methoxy-5-[(3-methoxy-1H-1,2,4-triazol-1-yl)methyl]pyridine] | 6.00 to 7.00
COc1ncn(Cc2cnc(OC(F)F)c(-c3cccc(Cl)c3)c2)n1 [Example 214, 3-(3-Chlorophenyl)-2-(difluoromethoxy)-5-[(3-methoxy-1H-1,2,4-triazol-1-yl)methyl]pyridine] | 6.00 to 7.00
COc1ncnn1Cc1cnc(OC(F)F)c(-c2cccc(Cl)c2)c1 [Example 215, 3-(3-Chlorophenyl)-2-(difluoromethoxy)-5-[(5-methoxy-1H-1,2,4-triazol-1-yl)methyl]pyridine] | 5.00 to 6.00
CCOc1ncn(Cc2cnc(OC(F)F)c(-c3cccc(Cl)c3)c2)n1 [Example 216, 3-(3-Chlorophenyl)-2-(difluoromethoxy)-5-[(3-ethoxy-1H-1,2,4-triazol-1-yl)methyl]pyridine] | 6.00 to 7.00
COc1ncc(Cn2cnc(N)n2)cc1-c1cccc(OC(F)F)c1 [Example 217, 1-({5-[3-(Difluoromethoxy)phenyl]-6-methoxypyridin-3-yl}methyl)-1H-1,2,4-triazol-3-amine] | > 7.00
COc1ncc(Cn2cnc(N)n2)cc1-c1cccc(Cl)c1 [Example 218, 1-{[5-(3-Chlorophenyl)-6-methoxypyridin-3-yl]methyl}-1H-1,2,4-triazol-3-amine] | 6.00 to 7.00
Nc1ncn(Cc2cnc(OC(F)F)c(-c3cccc(Cl)c3)c2)n1 [Example 219, 1-{[5-(3-Chlorophenyl)-6-(difluoromethoxy)pyridin-3-yl]methyl}-1H-1,2,4-triazol-3-amine] | > 7.00
COc1ncc(Cn2cnc(N)n2)cc1-c1cccc(F)c1 [Example 220, 1-{[5-(3-Fluorophenyl)-6-methoxypyridin-3-yl]methyl}-1H-1,2,4-triazol-3-amine] | 6.00 to 7.00

Second part, the compound after the results:

pEC50 | Structure (SMILES)
6.00 to 7.00 | COc1cccc(-c2cc(Cn3cnc(N)n3)cnc2OC)c1 [Example 221, 1-{[6-Methoxy-5-(3-methoxyphenyl)pyridin-3-yl]methyl}-1H-1,2,4-triazol-3-amine]
6.00 to 7.00 | COc1ncc(Cn2cnc(N)n2)cc1-c1cccc(C)c1 [Example 222, 1-{[6-Methoxy-5-(3-methylphenyl)pyridin-3-yl]methyl}-1H-1,2,4-triazol-3-amine]
6.00 to 7.00 | COc1ncc(Cn2cnc(N)n2)cc1-c1cccc(C#N)c1 [Example 223, 3-{5-[(3-Amino-1H-1,2,4-triazol-1-yl)methyl]-2-methoxypyridin-3-yl}benzonitrile]
6.00 to 7.00 | CCOc1cccc(-c2cc(Cn3cnc(N)n3)cnc2OC)c1 [Example 224, 1-{[5-(3-Ethoxyphenyl)-6-methoxypyridin-3-yl]methyl}-1H-1,2,4-triazol-3-amine]
5.00 to 6.00 | COc1ncc(Cn2cnc(N)n2)cc1-c1cccc(OC2CC2)c1 [Example 225, 1-{[5-(3-Cyclopropoxyphenyl)-6-methoxypyridin-3-yl]methyl}-1H-1,2,4-triazol-3-amine]
> 7.00 | CCOc1ncc(Cn2cnc(N)n2)cc1-c1cccc(OC(F)F)c1 [Example 226, 1-({5-[3-(Difluoromethoxy)phenyl]-6-ethoxypyridin-3-yl}methyl)-1H-1,2,4-triazol-3-amine]
6.00 to 7.00 | COc1cccc(-c2cc(Cn3cnc(N)n3)cnc2OC(F)F)c1 [Example 227, 1-{[6-(Difluoromethoxy)-5-(3-methoxyphenyl)pyridin-3-yl]methyl}-1H-1,2,4-triazol-3-amine]
5.00 to 6.00 | COc1ncc(Cn2cnc(N)n2)cc1-c1cncc(Cl)c1 [Example 228, 1-{[5-(5-Chloropyridin-3-yl)-6-methoxypyridin-3-yl]methyl}-1H-1,2,4-triazol-3-amine]
> 7.00 | COc1ncc(Cn2cnc(N)n2)cc1-c1ccnc(OC(F)F)c1 [Example 229, 1-({5-[2-(Difluoromethoxy)pyridin-4-yl]-6-methoxypyridin-3-yl}methyl)-1H-1,2,4-triazol-3-amine]
> 7.00 | CCOc1ncc(Cn2cnc(N)n2)cc1-c1ccnc(OC(F)F)c1 [Example 230, 1-({5-[2-(Difluoromethoxy)pyridin-4-yl]-6-ethoxypyridin-3-yl}methyl)-1H-1,2,4-triazol-3-amine]
6.00 to 7.00 | Nc1ncn(Cc2cnc(OC(F)F)c(-c3ccnc(OC(F)F)c3)c2)n1 [Example 231, 1-{[6-(Difluoromethoxy)-5-[2-(difluoromethoxy)pyridin-4-yl]pyridin-3-yl]methyl}-1H-1,2,4-triazol-3-amine]
> 7.00 | COc1ncc(Cn2ccc(N)n2)cc1-c1cccc(OC(F)F)c1 [Example 232, 1-({5-[3-(Difluoromethoxy)phenyl]-6-methoxypyridin-3-yl}methyl)-1H-pyrazol-3-amine]
6.00 to 7.00 | COc1ncc(Cn2nccc2N)cc1-c1cccc(OC(F)F)c1 [Example 233, 1-({5-[3-(Difluoromethoxy)phenyl]-6-methoxypyridin-3-yl}methyl)-1H-pyrazol-5-amine]
6.00 to 7.00 | CCOc1ncc(Cn2cc(Cl)c(N)n2)cc1-c1cccc(Cl)c1 [Example 234, 4-Chloro-1-{[5-(3-chlorophenyl)-6-ethoxypyridin-3-yl]methyl}-1H-pyrazol-3-amine]
5.00 to 6.00 | CCOc1ncc(Cn2ncc(Cl)c2N)cc1-c1cccc(Cl)c1 [Example 235, 4-Chloro-1-{[5-(3-chlorophenyl)-6-ethoxypyridin-3-yl]methyl}-1H-pyrazol-5-amine]
< 5.00 | COc1ncc(Cn2cc(N)cn2)nc1-c1cccc(Cl)c1 [Example 236, 1-{[6-(3-Chlorophenyl)-5-methoxypyrazin-2-yl]methyl}-1H-pyrazol-4-amine]
5.00 to 6.00 | CCOc1ncc(Cn2cnc(N)n2)nc1-c1cccc(OC(F)F)c1 [Example 237, 1-((6-(3-(Difluoromethoxy)phenyl)-5-ethoxypyrazin-2-yl)methyl)-1H-1,2,4-triazol-3-amine]
6.00 to 7.00 | CNc1ncn(Cc2cnc(OC(F)F)c(-c3cccc(Cl)c3)c2)n1 [Example 238, 1-{[5-(3-Chlorophenyl)-6-(difluoromethoxy)pyridin-3-yl]methyl}-N-methyl 1H-1,2,4-triazol-3-amine]
6.00 to 7.00 | CN(C)c1ncn(Cc2cnc(OC(F)F)c(-c3cccc(Cl)c3)c2)n1 [Example 239, 1-{[5-(3-Chlorophenyl)-6-(difluoromethoxy)pyridin-3-yl]methyl}-N,N-dimethyl-1H-1,2,4-triazol-3-amine]
5.00 to 6.00 | NCc1ncn(Cc2cnc(OC(F)F)c(-c3cccc(Cl)c3)c2)n1 [Example 240, (1-{[5-(3-Chlorophenyl)-6-(difluoromethoxy)pyridin-3-yl]methyl}-1H-1,2,4-triazol-3-yl)methanamine]
5.00 to 6.00 | COc1ncc(Cn2cnc(C(N)=O)n2)cc1-c1cccc(Cl)c1 [Example 241, 1-{[5-(3-Chlorophenyl)-6-methoxypyridin-3-yl]methyl}-1H-1,2,4-triazole-3-carboxamide]
< 5.00 | COc1ncc(Cn2cncn2)cc1-c1cn[nH]c1 [Example 242, 2-Methoxy-3-(1H-pyrazol-4-yl)-5-(1H-1,2,4-triazol-1-ylmethyl)pyridine]
5.00 to 6.00 | COc1ncc(Cc2ccc(C(=O)NC3COC3)cc2)cc1-c1cccc(Cl)c1 [Example 243, 4-{[5-(3-Chlorophenyl)-6-methoxypyridin-3-yl]methyl}-N-(oxetan-3-yl)benzamide]
6.00 to 7.00 | CNC(=O)c1ccc(Cc2cnc(OC(F)F)c(-c3cccc(Cl)c3)c2)cn1 [Example 244, 5-{[5-(3-Chlorophenyl)-6-(difluoromethoxy)pyridin-3-yl]methyl}-N-methylpyridine-2-carboxamide]
